Where “and” joins values, the source holds several entries; their conditions need not be identical. Equal entries are not always repeated.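 Compound exposure: 48 hours, 5 concentrations, 96-well plates. At the GI50, growth is halved. TGI is the concentration that stops growth completely.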
Experiments:
Experiment in all cases: NCI tumour cell line growth inhibition, 48 h
KM20L2 colon = test system: KM20L2 colon
HOP-92 NSCLC = test system: HOP-92 NSCLC
PC-3 prostate = test system: PC-3 prostate
T-47D breast = test system: T-47D breast
BT-549 breast = test system: BT-549 breast
MDA-MB-435 = test system: MDA-MB-435
SNB-78 CNS = test system: SNB-78 CNS
MCF7 breast = test system: MCF7 breast
LXFL 529 NSCLC = test system: LXFL 529 NSCLC

## O=C1c2c(O)cccc2C(C(=O)CCCCC(=O)C2c3cccc(O)c3C(=O)c3c(O)cccc32)c2cccc(O)c21
KM20L2 colon
  GI50: 1.58 µM
  TGI: 4.39 µM and 5.46 µM
HOP-92 NSCLC
  GI50: 1.3 µM
  TGI: 1.69 µM and 2.8 µM
PC-3 prostate
  TGI: 0.458 µM
T-47D breast
  TGI: 0.919 µM
BT-549 breast
  TGI: 1.96 µM
MDA-MB-435
  TGI: 3.01 µM
SNB-78 CNS
  GI50: 1.97 µM
  TGI: 1.23 µM and 5.93 µM
MCF7 breast
  TGI: 6.18 µM
LXFL 529 NSCLC
  GI50: 1.04 µM
  TGI: 1.01 µM and 1.95 µM

## CC(C)c1ccc(/C=C(\NC(=O)c2ccccc2)c2nc3ccccc3[nH]2)cc1
KM20L2 colon
  TGI: > 100 µM
HOP-92 NSCLC
  TGI: > 100 µM
SNB-78 CNS
  TGI: > 100 µM
LXFL 529 NSCLC
  TGI: > 100 µM

## CC1=C(C#N)C(N)=C2C(C)=C(C#N)C(N)=C12
KM20L2 colon
  TGI: > 100 µM
HOP-92 NSCLC
  TGI: > 100 µM
SNB-78 CNS
  TGI: > 100 µM
LXFL 529 NSCLC
  TGI: > 100 µM

## COC(=O)C(CC=O)C(=O)C(=O)Nc1cccc(C(F)(F)F)c1 (stereo not given)
KM20L2 colon
  TGI: > 100 µM
HOP-92 NSCLC
  TGI: > 100 µM
SNB-78 CNS
  TGI: > 100 µM
LXFL 529 NSCLC
  TGI: > 100 µM

## COc1cc2c3c(c1OC)-c1ccccc1C(C(OC(C)=O)c1ccccc1)C3N(C)CC2 (stereo not given)
KM20L2 colon
  TGI: > 100 µM
HOP-92 NSCLC
  TGI: > 100 µM
SNB-78 CNS
  TGI: > 100 µM
LXFL 529 NSCLC
  TGI: > 100 µM

## CC1CCC(O)C(C(O)CC2CC(=O)N(C)C(=O)C2)C1 (stereo not given)
KM20L2 colon
  TGI: > 100 µM
HOP-92 NSCLC
  TGI: > 100 µM
SNB-78 CNS
  TGI: > 100 µM
LXFL 529 NSCLC
  TGI: > 100 µM

## O=C(CCCCCCCCCCc1ccccc1)c1c(O)cccc1O
KM20L2 colon
  TGI: > 100 µM
HOP-92 NSCLC
  TGI: 41.8 µM
SNB-78 CNS
  TGI: > 100 µM
LXFL 529 NSCLC
  TGI: 34.7 µM

## O=C1OCC(C(=O)c2cccc(O)c2)C1=O (stereo not given)
KM20L2 colon
  TGI: > 100 µM
HOP-92 NSCLC
  TGI: > 100 µM
SNB-78 CNS
  TGI: > 100 µM
LXFL 529 NSCLC
  TGI: > 100 µM

## COc1cc2ccn3c4cc(OC)c(OC)cc4cc3c2cc1OC
KM20L2 colon
  TGI: > 100 µM
HOP-92 NSCLC
  TGI: > 100 µM
SNB-78 CNS
  TGI: > 100 µM
LXFL 529 NSCLC
  TGI: > 100 µM

## COC(=O)/C(=N\NC(=O)c1ccccc1O)C(C#N)c1ccc(Cl)cc1 (stereo not given)
KM20L2 colon
  TGI: > 100 µM
HOP-92 NSCLC
  TGI: > 100 µM
SNB-78 CNS
  TGI: > 100 µM
LXFL 529 NSCLC
  TGI: > 100 µM

## c1ccc(SCCCC(Sc2ccccc2)Sc2ccccc2)cc1
KM20L2 colon
  TGI: > 100 µM
HOP-92 NSCLC
  TGI: > 100 µM
SNB-78 CNS
  TGI: > 100 µM
LXFL 529 NSCLC
  TGI: > 100 µM

## CC1=CC2=C(C)C3(CC3)[C@@](C)(O)C(=O)C2=C1
KM20L2 colon
  TGI: 0.498 µM
HOP-92 NSCLC
  TGI: 0.692 µM
SNB-78 CNS
  TGI: > 0.631 µM
LXFL 529 NSCLC
  TGI: 0.783 µM

## O=c1c2ccccc2nc(-c2ccccc2)n1NCC1(O)OCC(O)C(O)C1O (stereo not given)
KM20L2 colon
  TGI: > 100 µM
HOP-92 NSCLC
  TGI: > 100 µM
SNB-78 CNS
  TGI: > 100 µM
LXFL 529 NSCLC
  TGI: > 100 µM

## CCOC(=O)c1cnc2[nH]c(=O)c3ccccc3n2c1=O
KM20L2 colon
  TGI: > 100 µM
HOP-92 NSCLC
  TGI: > 100 µM
SNB-78 CNS
  TGI: > 100 µM
LXFL 529 NSCLC
  TGI: > 100 µM

From PubChem BioAssay (NCI)
